One test deals with Vero. Nature of the test: host cell cytotoxicity of antiviral hits, dose response, cytotoxicity control for West Nile virus antiviral project, secondary assay (AID 1650). The format is functional. Conditions: Chlorocebus sabaeus.
For another test, the system named is HeLa. Nature of the test: HeLa cell cytotoxicity, dose response, cytotoxicity control, ATP luminescence, cherry-pick samples (AID 687004). The format is functional, cell-based. The conditions noted are these: Homo sapiens.
A short description of test [1]: inhibitors of intracellular T. cruzi replication, confirmation, NIH3T3 host cells, beta-gal luminescence (AID 2044).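 Also: intracellular parasites grown in NIH/3T3 mouse fibroblasts as host cells; luminescent beta-galactosidase reporter signal from transgenic T. cruzi replicating inside host cells; inhibitors lower the luminescence signal.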 The format is functional, cell-based.
Test [2] can be described thus: cytotoxicity toward NIH3T3 fibroblasts, dose response, counter-screen, cell-based, ATP luminescence, mouse fibroblasts (AID 2010).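 Also: cells exposed to compound for about 90 hours before reading.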 The format is functional.
Test [3] concerns Streptococcus sp. 'group A'. Kind of test: growth inhibition of control SK(-) GAS strain, dose response, counter-screen for streptokinase expression inhibitor project, luminescence, kanamycin, BacTiterGlo, confirmation (AID 1900). The format is functional, organism-based.
For another test, the target named is T1, Streptokinase A (Streptococcus pyogenes serotype M1, UniProt P10520).
T1 sequence (P10520 whole entry): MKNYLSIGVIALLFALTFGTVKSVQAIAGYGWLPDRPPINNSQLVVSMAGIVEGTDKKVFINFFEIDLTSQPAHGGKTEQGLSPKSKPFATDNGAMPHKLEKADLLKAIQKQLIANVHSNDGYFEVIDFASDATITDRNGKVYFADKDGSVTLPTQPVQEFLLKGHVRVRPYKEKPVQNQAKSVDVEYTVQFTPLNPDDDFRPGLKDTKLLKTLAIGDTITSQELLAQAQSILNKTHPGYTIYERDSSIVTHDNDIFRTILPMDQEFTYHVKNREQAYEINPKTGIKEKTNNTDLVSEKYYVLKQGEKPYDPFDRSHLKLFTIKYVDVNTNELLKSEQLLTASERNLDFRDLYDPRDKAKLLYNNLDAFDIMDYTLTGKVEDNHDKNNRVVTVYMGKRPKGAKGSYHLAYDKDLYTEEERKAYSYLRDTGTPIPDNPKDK
Nature of the test: S. pyogenes streptokinase expression inhibitors, potency, dose response, plasminogen activation absorbance, OD405 (AID 1914).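 Also: secreted streptokinase activity via plasminogen activation per viability signal from cell pellet.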 The format is functional, Streptococcus pyogenes M1 GAS.

The subject of another test is Streptococcus. Kind of test: Group A Streptococcus viability loss, dose response, counter-screen for streptokinase expression inhibitor project, luminescence, BacTiterGlo (AID 1915).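 Also: potency for reduction of bacterial viability or growth.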 The format is functional, organism-based.
In test [4] the target is Disintegrin and metalloproteinase domain-containing protein 17 (Homo sapiens, UniProt P78536). Nature of the test: exosite inhibitors of ADAM17, dose response, biochemical (AID 743260).
Chain of Disintegrin and metalloproteinase domain-containing protein 17 (P78536 whole entry, the tested form may be a part): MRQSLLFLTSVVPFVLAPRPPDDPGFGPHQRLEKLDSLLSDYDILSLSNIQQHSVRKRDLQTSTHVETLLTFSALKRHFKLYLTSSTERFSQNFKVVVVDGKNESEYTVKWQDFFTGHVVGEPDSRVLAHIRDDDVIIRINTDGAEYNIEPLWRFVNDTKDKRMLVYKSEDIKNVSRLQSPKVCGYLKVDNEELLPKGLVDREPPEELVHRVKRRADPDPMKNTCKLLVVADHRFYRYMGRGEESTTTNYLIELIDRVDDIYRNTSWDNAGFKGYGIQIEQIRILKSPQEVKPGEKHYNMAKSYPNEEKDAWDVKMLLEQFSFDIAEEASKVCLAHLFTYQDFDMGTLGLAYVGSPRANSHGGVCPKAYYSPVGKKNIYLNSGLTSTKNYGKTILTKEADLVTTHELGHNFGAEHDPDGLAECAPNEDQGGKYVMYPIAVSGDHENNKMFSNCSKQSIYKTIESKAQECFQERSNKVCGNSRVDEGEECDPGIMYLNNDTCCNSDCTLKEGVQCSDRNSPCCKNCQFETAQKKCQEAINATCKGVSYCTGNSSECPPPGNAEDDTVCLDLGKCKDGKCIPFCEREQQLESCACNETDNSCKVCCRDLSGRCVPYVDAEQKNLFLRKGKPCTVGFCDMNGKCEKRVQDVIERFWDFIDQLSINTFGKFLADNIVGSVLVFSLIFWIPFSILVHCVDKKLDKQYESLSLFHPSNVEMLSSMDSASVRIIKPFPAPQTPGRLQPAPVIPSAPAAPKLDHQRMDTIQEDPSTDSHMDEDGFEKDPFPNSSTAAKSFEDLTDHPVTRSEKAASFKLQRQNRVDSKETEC
A short description of test [5]: ADAM10 protease inhibitors, dose response, selectivity assay for ADAM17 exosite inhibitor project, biochemical, FRET peptide substrate, recombinant human ADAM10 (AID 743259).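 Also: ADAM10 enzyme cleaving a FRET peptide substrate.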
The subject of the next test is CHO. Nature of the test: cytotoxicity in TLR9-MyD88 CHO cells, dose response, cytotoxicity control for TLR9-MyD88 binding inhibitor project, cell-based, luminescence (AID 588339).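 Also: CHO cells stably coexpressing TLR9 and MyD88 fusions from primary screen; compound exposure lasted 48 hours before viability readout.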 The format is functional, hamster. Conditions: Cricetulus griseus.
The next test has as its target Beta Lactamase (Pseudomonas aeruginosa, UniProt Q932Y6). Kind of test: beta-lactamase reporter inhibitor potency, dose response, artefact control for TLR9-MyD88 binding inhibitor project, BLA reporter cells, FRET fluorescence (AID 588341).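 Also: cell based assay in CHO-K1 cells stably expressing beta-lactamase.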 The format is cell-based.
The target of test [6] is Photoreceptor-specific nuclear receptor (Homo sapiens, UniProt Q9Y5X4). The format is functional, cell-based.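 Also: CHO-S cells with Gal4-NCOR and VP16-NR2E3 two-hybrid luciferase reporter.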
Chain of Photoreceptor-specific nuclear receptor (Q9Y5X4 whole entry, the tested form may be a part): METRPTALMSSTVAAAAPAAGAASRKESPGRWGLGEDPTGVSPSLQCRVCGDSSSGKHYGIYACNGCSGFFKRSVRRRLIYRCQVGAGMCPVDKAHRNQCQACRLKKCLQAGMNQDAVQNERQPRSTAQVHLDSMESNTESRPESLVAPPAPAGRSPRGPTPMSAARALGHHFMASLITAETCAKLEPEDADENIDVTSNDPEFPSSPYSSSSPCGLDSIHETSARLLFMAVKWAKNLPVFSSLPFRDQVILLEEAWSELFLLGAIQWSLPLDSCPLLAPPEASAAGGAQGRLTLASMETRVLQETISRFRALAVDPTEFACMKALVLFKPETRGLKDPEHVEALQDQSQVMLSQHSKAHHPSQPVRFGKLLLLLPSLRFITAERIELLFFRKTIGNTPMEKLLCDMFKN
Test [7] deals with T2, Apoptotic protease-activating factor 1 (Homo sapiens, UniProt O14727).
T2 sequence (O14727 whole entry): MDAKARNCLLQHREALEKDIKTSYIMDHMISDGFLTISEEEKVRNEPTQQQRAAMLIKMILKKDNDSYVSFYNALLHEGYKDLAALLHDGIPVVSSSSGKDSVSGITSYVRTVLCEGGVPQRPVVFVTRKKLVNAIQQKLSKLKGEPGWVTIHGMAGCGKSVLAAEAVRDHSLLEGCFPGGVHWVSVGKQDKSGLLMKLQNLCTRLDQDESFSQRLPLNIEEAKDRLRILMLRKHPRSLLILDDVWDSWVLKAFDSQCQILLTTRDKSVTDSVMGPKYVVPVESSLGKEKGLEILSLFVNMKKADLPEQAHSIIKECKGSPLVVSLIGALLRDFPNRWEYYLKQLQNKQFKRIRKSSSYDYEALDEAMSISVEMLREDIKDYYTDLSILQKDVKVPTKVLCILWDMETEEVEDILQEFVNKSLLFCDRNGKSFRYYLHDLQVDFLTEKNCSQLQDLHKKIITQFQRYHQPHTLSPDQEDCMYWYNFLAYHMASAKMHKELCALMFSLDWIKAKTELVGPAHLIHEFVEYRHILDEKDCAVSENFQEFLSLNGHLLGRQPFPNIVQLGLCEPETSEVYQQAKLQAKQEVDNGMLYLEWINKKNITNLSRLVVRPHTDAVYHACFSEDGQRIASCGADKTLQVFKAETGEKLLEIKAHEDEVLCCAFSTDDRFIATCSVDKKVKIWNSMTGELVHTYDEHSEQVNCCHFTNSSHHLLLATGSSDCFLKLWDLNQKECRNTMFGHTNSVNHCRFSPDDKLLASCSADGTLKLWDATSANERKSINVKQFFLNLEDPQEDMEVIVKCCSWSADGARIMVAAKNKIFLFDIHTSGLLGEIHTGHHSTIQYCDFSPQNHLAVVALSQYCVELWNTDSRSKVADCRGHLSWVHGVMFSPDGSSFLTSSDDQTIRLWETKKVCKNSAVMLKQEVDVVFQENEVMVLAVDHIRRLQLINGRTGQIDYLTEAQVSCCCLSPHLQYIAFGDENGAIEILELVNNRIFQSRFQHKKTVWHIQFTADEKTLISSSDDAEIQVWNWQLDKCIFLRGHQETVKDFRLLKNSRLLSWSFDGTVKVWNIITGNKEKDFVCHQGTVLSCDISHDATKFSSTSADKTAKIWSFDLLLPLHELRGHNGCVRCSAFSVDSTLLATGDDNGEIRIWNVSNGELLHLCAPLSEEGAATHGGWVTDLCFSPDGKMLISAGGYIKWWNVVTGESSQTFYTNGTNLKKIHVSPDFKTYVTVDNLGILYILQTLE
The format is functional.

Test [8] is described as follows: miR-122 activators in hepatoma reporter cells, dose response, cell-based, Huh7 psiCHECK-miR122, Renilla luciferase, cherry-picked (AID 651956).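 Also: huh7 hepatoma cells stably carrying a psiCHECK-2 miR-122 sensor plasmid; renilla luciferase signal reporting endogenous miR-122 activity after 48 h compound exposure.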 The format is functional.
A further test deals with Paired box protein Pax-8 (Homo sapiens, UniProt Q06710). Nature of the test: inhibitors of PAX8-driven TPO luciferase reporter, dose response, RMG-I cells, cherry-pick (AID 687027).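 Also: luciferase reporter driven by Pax8 target thyroperoxidase promoter measured by SteadyGlo luminescence.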 The format is functional, cell-based.
Chain of Paired box protein Pax-8 (Q06710 whole entry): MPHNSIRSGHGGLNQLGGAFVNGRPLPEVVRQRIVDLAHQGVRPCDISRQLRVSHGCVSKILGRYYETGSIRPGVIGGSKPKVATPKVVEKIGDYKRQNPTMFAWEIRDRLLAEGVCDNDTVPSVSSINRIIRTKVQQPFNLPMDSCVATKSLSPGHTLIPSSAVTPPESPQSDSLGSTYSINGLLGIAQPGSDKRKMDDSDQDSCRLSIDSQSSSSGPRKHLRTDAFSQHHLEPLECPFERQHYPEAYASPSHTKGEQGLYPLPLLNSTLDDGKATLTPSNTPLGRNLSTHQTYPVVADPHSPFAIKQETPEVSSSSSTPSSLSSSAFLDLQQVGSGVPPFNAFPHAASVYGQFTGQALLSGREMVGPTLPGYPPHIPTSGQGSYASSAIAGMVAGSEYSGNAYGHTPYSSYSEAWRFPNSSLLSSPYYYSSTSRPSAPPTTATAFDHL
The nature of test [9]: HEK293T cytotoxicity, dose response, cytotoxicity control for miR-122 modulator project, cell-based, inhibitor set, cherry-pick, set 2 (AID 720697). The format is functional.
Test [10] can be described thus: P. falciparum Dd2 growth inhibitors, dose response, SYBR Green, cherry-picked samples (AID 1159567). The format is functional, cell-based.
A short description of test [11]: A375 melanoma cell viability loss, dose response, counter-screen for MITF inhibitor project, CellTiter-Glo luminescence, dry powder, set 4 (AID 624364).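 Also: A375 melanoma cells are MITF independent so this is a counter screen.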 The format is functional, cell-based. The conditions noted are these: A-375.
Test [12] in a line: A375 melanoma cell cytotoxicity, dose response, counter-screen for MITF inhibitor project, CellTiter-Glo luminescence, dry powder, set 2 (AID 624489).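 Also: actives are compounds lowering A375 viability meaning general cytotoxicity.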 The format is functional, cell-based. The conditions noted are these: A-375.
Test [13] addresses T3, RNA-editing ligase 1, mitochondrial (Trypanosoma brucei brucei, UniProt P86926).
T3 sequence (P86926 whole entry): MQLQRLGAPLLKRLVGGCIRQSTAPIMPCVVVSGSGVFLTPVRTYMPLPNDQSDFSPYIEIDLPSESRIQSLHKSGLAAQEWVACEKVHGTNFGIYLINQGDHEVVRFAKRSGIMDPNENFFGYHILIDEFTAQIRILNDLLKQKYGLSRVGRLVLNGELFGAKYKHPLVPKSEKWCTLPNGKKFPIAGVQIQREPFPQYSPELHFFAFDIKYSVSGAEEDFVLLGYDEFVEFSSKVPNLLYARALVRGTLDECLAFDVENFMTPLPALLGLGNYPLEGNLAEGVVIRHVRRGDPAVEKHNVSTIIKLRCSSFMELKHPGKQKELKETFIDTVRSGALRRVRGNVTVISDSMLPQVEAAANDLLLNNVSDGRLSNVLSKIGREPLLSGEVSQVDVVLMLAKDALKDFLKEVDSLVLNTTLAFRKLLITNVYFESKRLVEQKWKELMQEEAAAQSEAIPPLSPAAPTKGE
Nature of the test: TbREL1 ligase inhibitors, dose response, biochemical, fluorescence, Trypanosoma brucei (AID 1117295). The format is functional.

The nature of test [14]: Glucagon-like peptide 1 release potency, NCI-H716 cell line, dose-response, half-maximal inhibitory concentration (AID 1117344). The format is functional, cell-based.

The values that follow come from ChEMBL document CHEMBL1201862, “PubChem BioAssay data set” (2004).

Activity calls are given as the source filed them.

Chain of Beta Lactamase (Q932Y6 whole entry, the tested form may be a part): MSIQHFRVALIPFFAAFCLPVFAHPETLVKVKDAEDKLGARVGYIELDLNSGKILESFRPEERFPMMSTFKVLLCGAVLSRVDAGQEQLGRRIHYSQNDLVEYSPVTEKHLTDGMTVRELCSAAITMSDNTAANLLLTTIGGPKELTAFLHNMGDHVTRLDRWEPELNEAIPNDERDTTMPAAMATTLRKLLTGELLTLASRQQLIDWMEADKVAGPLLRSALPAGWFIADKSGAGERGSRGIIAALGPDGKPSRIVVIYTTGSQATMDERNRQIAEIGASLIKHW

`O=C1COc2ccc(C(=O)CSc3nc4ccccc4c(=O)n3-c3ccc(Cl)c(Cl)c3)cc2N1`: the CC50 with Vero is 16.6 µM (active).

Consider `COc1cc(C(=O)Oc2ccccc2N)cc(OC)c1OC`, for which, in the test on HeLa, the AC50 was > 52 µM (inactive).

As for `O=C(CCN1C(=O)/C(=C/c2ccc(F)cc2)SC1=S)N[C@@H](CO)Cc1ccccc1`, the CC50 with Vero was 49.9 µM (active).

On to `CC(C)(CN=C(S)NCCc1ccccc1)CN=C(S)NCCc1ccccc1`, for which the CC50 in the test on Vero is 23.7 µM (active). The values for the EC50 in [1] and in test [2] were 3.35 µM (active) and > 60 µM (not active), respectively.

Regarding `CC1CCCCN1C(=O)CSc1nc(C2CC2)nc2c1cnn2-c1ccccc1` (stereo unspecified), the AC50 with HeLa was > 52 µM (inactive).

Consider `COc1ccc(NC(S)=Nc2nc(CC(=O)Nc3ccccc3OC)cs2)cc1`, for which the EC50 was 6.09 µM (active) in [3], > 150 µM (not active) on Streptokinase A and 17.3 µM (active) in the test on Streptococcus. Further, the IC50 is > 69.5 µM (inactive) in test [4] and > 2.58 µM (active) in [5].

For the compound `Cc1ccc(S(=O)(=O)c2ccc([N+](=O)[O-])o2)cc1`, the IC50 in the test with CHO is 0.745 µM (active); on Beta Lactamase it was 11.2 µM (inactive); in [6], 2.9 µM (active).

On to `COC(=O)C1=C(c2ccc(F)cc2OCc2ccccc2)C[C@@H]2CC[C@H]1N2C(=O)NCc1cccc(C(F)(F)F)c1`, for which the IC50 in test [4] and in test [5] was > 69.5 µM (inactive) each time.

`COCCN(Cc1ccccc1)C(=O)c1cccc(S(=O)(=O)N2CCN(c3ccccc3)CC2)c1`: the IC50 in test [7] was > 100 µM (inactive).

As to `CCc1noc(C)c1C(=O)OC(C)C(=O)Nc1ccc2c(c1)OCO2` (stereo unspecified), the IC50 in [4] and in [5] was > 69.6 µM (inactive) each time.

Take `C[C@H](CO)N1C[C@H](C)[C@@H](CN(C)Cc2ccc(-c3ccccc3)cc2)Oc2ccc(NC(=O)Cc3ccccc3)cc2CC1=O`: the AC50 in test [8] is 21.3 µM (active); on Paired box protein Pax-8, 9.36 µM (active); in test [9] it was 28.7 µM (active).

As for `C[C@@H]1CN([C@@H](C)CO)C(=O)c2cc(NC(=O)Nc3ccccc3)ccc2O[C@@H]1CN(C)C(=O)Nc1cccc2ccccc12`, the results for the AC50 (in the test on HeLa; in test [10]) were > 52 µM (inactive) and 8.14 µM (active), respectively.

For `CCN(CC)CCNC1=C(Nc2ccccc2)C(=O)c2ccccc2C1=O`, the AC50 in [11] and in test [12] was > 70 µM (inactive) in each case.

As to `CN1C(=O)c2cc(NC(=O)Cc3ccccc3)ccc2OC[C@H]2O[C@@H](CC(=O)NC3CCC3)CC[C@@H]21`, the AC50 in test [9] is 9.59 µM (active).

`Cc1ccc(C(=O)NC2=C(c3ccccc3)C(=O)c3ccccc3C2=O)o1`: the AC50 in test [11] was 21.8 µM (active); in test [12], 19.1 µM (active).

Turning to `COC(=O)C1=C(C)N(Cc2cccc(C(F)(F)F)c2)C(NCc2ccc(OC)cc2)=NC1c1ccccc1C(F)(F)F` (stereo unspecified), the IC50 in [13] was > 96.6 µM (inactive).

On to `COc1ccc(C2=C(NC(=O)c3cccc(OC)c3)C(=O)c3ccccc3C2=O)cc1`, for which the AC50 in test [11] was 29.5 µM (active); in [12] it was 13.6 µM (active).

Consider `COc1ccc(C2=C(NC(=O)c3ccccc3Cl)C(=O)c3ccccc3C2=O)cc1`, for which the AC50 in test [11] is 17.5 µM (active); in [12] it was 11.8 µM (active).

In the case of `CCN(CC)CCOc1ccc(/C(=C(\Cl)c2ccccc2)c2ccccc2)cc1` [CLOMIPHENE], the IC50 in test [14] is > 40 µM (inactive).
